From patent US20130267494A1, “1,4-OXAZEPANE DERIVATIVES” (priority 2010, published 2013)
Where a name gives a salt, the structure may show the parent alone. Read-outs that look alike come from different tables or passages of the source.

How the values were obtained:
Type in all cases: cell-based
[1] = biological target: T1, human dopamine transporter (Homo sapiens, UniProt Q01959); experiment: Inhibitory action on human dopamine transporter ([3H]-dopamine uptake in CHO cells); details: CHO, relative to inhibitory activity of 100 μM Nomifensine as 100%, read-out: inhibitory rate (%); for inhibition at 1 µM: compound 1 μM
T1 construct: expressed in transfected cells
Description: SRα promoter contained in pTB1411 described in JP-A-H5-076385 was cleaved with restriction enzyme […](manufactured by TAKARA BIO INC.), blunt-ended, further cleaved with restriction enzyme EcoRI (manufactured by TAKARA BIO INC.), and fragmented. On the other hand, pCI vector was cleaved with restriction enzyme BglII (manufactured by TAKARA BIO INC.), blunt-ended with T4 DNA polymerase, and further cleaved with restriction enzyme EcoRI (manufactured by TAKARA BIO INC.). Into this site was inserted an SRa promoter fragment to give pCI-SRa. Then, pCI-SRa was cleaved with restriction enzyme ClaI (manufactured by TAKARA BIO INC.) and blunt-ended. Into this site was inserted a 1.63 Kb fragment obtained by cleaving pGFP-C1 (manufactured by TOYOBO) with restriction enzyme Bsu36I (manufactured by Daiichi Pure Chemicals Co., Ltd.) followed by blunt-ending, whereby pMSRα neo was prepared. Human dopamine transporter cDNA was amplified from human substantia nigra cDNA library by PCR, and inserted into the pCRII vector (manufactured by Invitrogen). The base sequence was confirmed, modified and subcloned to pMSRα neo, whereby a human dopamine transporter expression plasmid was constructed.
(§1) The monoamine transporter expression plasmids thus prepared were introduced into CHO-K1 cells using FuGENE6 (manufactured by Roche Diagnostics) and according to the attached protocol, whereby each expressing cell was established.
CHO cells stably expressing human dopamine transporter were used for the measurement of human dopamine transporter inhibitory activity. Unless otherwise indicated, these CHO cells were cultured in Ham/F12 medium (Invitrogen) containing 10% fetal bovine serum (MOREGATE).
(§2) One day before the assay, the cultured cells that reached almost confluent were rinsed with PBS (Invitrogen), detached with Trypsin/EDTA (Invitrogen), and collected by a centrifugal operation. The obtained cells were counted, and diluted to 3×10^5 cells per 1 mL medium, and the mixture was dispensed to a 96 well white plate (Corning) at 100 μL per well, and cultured overnight in a CO2 incubator.
(§3) On the day of the test, an assay buffer (126 mM NaCl, 4.95 mM KCl, 1.26 mM KH2PO4, 1.26 mM MgSO4, 10 mM HEPES, 2.32 mM CaCl2, 5.52 mM Glucose, 0.5% BSA) was prepared, the medium in the cell plate was removed and the assay buffer was added by 80 μL. A test compound was diluted with the assay buffer to a 10-fold concentration of the final concentration, and the mixture was dispensed to a 96 well polypropylene plate. The diluted test compound was dispensed to the cell plate by 10 μL. [3H]-Dopamine (GE Healthcare) was diluted with the assay buffer to 200 nM, cold dopamine was diluted to 10 μM, and the mixture was dispensed to the cell plate by 10 μL. At 60 min from [3H]-dopamine addition, the assay buffer was removed by suction, and the plate was washed twice with 150 μL of PBS (Invitrogen) per well. Microscinti20 (PerkinElmer) was dispensed to each well by 100 μL, and the mixture was stirred for about 30 min. The radioactivity was measured by TopCount (PerkinElmer).
The inhibitory activity of each compound (10 μM) was calculated as a relative activity value based on the inhibitory activity of 100 μM Nomifensine (dopamine transporter inhibitor) as 100%.
The inhibitory activity of each compound (1 μM) was m calculated as a relative activity value based on the inhibitory activity of 100 μM Nomifensine (dopamine transporter inhibitor) as 100%.

[2] = biological target: T2, human serotonin transporter (Homo sapiens, UniProt P31645); experiment: Inhibitory action on human serotonin transporter ([3H]-5-hydroxytryptamine uptake in CHO cells); details: CHO, relative to inhibitory activity of 10 μM Paroxetine as 100%, read-out: inhibitory rate (%); for inhibition at 1 µM: compound 1 μM
T2 construct: expressed in transfected cells
Description: (§4) Human serotonin transporter cDNA was amplified from human brain cDNA library by PCR, and inserted into pCRII-TOPO vector (manufactured by Invitrogen). The base sequence was confirmed and modified, and subcloned to pcDNA3.1 vector (manufactured by Invitrogen), whereby a human serotonin transporter expression plasmid was constructed. Human norepinephrine transporter cDNA was purchased from Invitrogen, and the base sequence was confirm and modified, and subcloned to pcDNA3.1 vector, whereby a human norepinephrine transporter expression plasmid was constructed.
as §1
CHO cells stably expressing a human serotonin transporter were used for the measurement of human serotonin transporter inhibitory activity. Unless particularly indicated, these CHO cells were cultured in a Ham/F12 medium (Invitrogen) containing 10% fetal bovine serum (MOREGATE).
as §2, with “The” for “One day before the assay, the”, “medium,” for “medium, and”
as §3, with “Then,” for “On the day of the test,”, “[3H]-5-Hydroxytryptamine” for “[3H]-Dopamine”, “nM,” for “nM, cold dopamine was diluted to 10 μM,”, “20” for “60”, “[3H]-5-hydroxytryptamine” for “[3H]-dopamine”
The inhibitory activity of each compound (10 μM) was calculated as a relative activity value based on the inhibitory activity of 10 μM Paroxetine (serotonin transporter inhibitor) as 100%.
In addition, the inhibitory activity of each compound (1 μM) was calculated as a relative activity value based on the inhibitory activity of 10 μM Paroxetine (serotonin transporter inhibitor) as 100%.

[3] = biological target: T3, human norepinephrine transporter (Homo sapiens, UniProt P23975); experiment: Inhibitory action on human norepinephrine transporter ([3H]-norepinephrine uptake in CHO cells); details: CHO, relative to inhibitory activity of 10 μM DMI as 100%
T3 construct: expressed in transfected cells
Description: as §4, §1
CHO cells stably expressing human norepinephrine transporter were used for the measurement of human norepinephrine transporter inhibitory activity. Unless otherwise indicated, these CHO cells were cultured in Ham/F12 medium (Invitrogen) containing 10% fetal bovine serum (MOREGATE).
as §2, with “The” for “One day before the assay, the”
as §3, with “Then,” for “On the day of the test,”, “[3H]-Norepinephrine” for “[3H]-Dopamine”, “nM,” for “nM, cold dopamine was diluted to 10 μM,”, “45” for “60”, “[3H]-norepinephrine” for “[3H]-dopamine”
The inhibitory activity of each compound (10 μM) was calculated as a relative activity value based on the inhibitory activity of 10 μM DMI (norepinephrine transporter inhibitor) as 100%.
The inhibitory activity of each compound (1 μM) was calculated as a relative activity value based on the inhibitory activity of 10 μM DMI (norepinephrine transporter inhibitor) as 100%.

[4] = compound 1 μM, read-out: inhibitory rate (%)
[5] = read-out: inhibitory rate (%), compound 1 μM

T2 sequence (P31645 whole entry): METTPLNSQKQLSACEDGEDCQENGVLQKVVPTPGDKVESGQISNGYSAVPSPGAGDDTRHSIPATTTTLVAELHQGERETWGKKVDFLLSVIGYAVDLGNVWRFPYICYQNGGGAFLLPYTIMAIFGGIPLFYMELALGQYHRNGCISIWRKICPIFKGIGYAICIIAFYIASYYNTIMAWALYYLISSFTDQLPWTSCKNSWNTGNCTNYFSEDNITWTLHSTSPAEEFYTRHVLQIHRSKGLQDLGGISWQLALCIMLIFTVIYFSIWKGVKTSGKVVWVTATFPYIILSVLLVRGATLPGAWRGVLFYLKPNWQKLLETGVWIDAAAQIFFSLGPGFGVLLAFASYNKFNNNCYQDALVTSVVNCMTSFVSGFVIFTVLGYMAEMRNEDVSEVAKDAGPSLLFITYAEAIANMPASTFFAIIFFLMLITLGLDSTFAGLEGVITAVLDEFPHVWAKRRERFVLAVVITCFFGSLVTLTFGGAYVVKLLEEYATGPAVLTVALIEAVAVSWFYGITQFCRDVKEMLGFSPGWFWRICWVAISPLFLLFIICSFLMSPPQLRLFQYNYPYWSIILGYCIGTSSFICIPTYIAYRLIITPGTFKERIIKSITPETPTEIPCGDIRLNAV
T1 sequence (Q01959 whole entry): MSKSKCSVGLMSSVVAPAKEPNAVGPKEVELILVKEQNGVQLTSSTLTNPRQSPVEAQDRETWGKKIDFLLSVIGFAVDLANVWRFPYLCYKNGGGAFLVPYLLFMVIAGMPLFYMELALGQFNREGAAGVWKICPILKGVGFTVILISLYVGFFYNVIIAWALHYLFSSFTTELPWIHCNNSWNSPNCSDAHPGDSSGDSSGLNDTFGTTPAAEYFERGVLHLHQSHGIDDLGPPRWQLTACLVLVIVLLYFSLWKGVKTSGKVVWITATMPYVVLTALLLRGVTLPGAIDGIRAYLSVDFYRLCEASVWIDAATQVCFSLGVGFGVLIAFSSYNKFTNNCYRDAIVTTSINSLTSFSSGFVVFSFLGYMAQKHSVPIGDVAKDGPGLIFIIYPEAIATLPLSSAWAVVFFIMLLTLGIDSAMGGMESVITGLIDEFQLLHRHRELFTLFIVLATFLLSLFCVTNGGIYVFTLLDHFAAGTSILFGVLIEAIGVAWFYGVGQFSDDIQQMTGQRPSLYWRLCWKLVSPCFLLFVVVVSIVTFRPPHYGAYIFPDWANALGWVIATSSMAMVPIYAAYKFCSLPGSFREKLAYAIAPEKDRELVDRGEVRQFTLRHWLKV
T3 sequence (P23975 whole entry): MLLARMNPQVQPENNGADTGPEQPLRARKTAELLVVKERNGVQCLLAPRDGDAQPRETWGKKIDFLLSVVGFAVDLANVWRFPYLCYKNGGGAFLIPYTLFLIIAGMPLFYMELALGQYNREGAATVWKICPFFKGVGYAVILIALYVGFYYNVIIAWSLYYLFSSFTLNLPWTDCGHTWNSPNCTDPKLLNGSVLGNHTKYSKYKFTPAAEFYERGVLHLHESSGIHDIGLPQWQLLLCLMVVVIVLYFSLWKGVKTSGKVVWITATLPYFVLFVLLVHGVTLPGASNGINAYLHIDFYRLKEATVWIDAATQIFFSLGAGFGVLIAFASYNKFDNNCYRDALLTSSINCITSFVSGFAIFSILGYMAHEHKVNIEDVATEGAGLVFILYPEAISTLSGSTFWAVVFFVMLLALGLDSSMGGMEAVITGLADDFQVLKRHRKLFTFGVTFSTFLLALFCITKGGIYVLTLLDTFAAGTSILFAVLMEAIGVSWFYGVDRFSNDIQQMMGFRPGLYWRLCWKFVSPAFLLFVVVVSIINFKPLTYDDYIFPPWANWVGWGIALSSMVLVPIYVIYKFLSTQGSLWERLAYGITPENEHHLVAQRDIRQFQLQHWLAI

inhibition at 1 µM [1] [%]	inhibition at 10 µM ([1]; compound 10 μM) [%]	inhibition at 1 µM [2] [%]	inhibition at 10 µM ([2]; compound 10 μM, CHO cells expressing human serotonin transporter) [%]	inhibition at 1 µM [3, 4] [%]	inhibition at 10 µM ([3]; compound 10 μM, read-out: inhibitory rate (%)) [%]	Structure (SMILES)	inhibition at 1 µM [3, 5] [%]
39	90	87	97	97	100	CS(=O)(=O)C[C@H]1CNCCOC1c1ccc(F)c(Cl)c1 (mixture of isomers) [Example 12, (6RS,7SR)-7-(3-chloro-4-fluorophenyl)-6-[(methylsulfonyl)methyl]-1,4-oxazepane monohydrochloride]	–
13	–	43	–	105	–	O=C(CO)NC[C@@H]1CNCCO[C@H]1c1ccc(Cl)c(F)c1 [Example 315, N-{[(6S,7R)-7-(4-chloro-3-fluorophenyl)-1,4-oxazepan-6-yl]methyl}-2-hydroxyacetamide monohydrochloride]	–
72	–	79	–	102	–	CS(=O)(=O)N[C@@H]1CNCCO[C@H]1c1ccc(Cl)c(Cl)c1 [Example 265, N-[(6R,7S)-7-(3,4-dichlorophenyl)-1,4-oxazepan-6-yl]methanesulfonamide monohydrochloride]	–
40	–	65	–	105	–	CS(=O)(=O)NC[C@@]1(O)CNCCO[C@@H]1c1ccc(Cl)c(Cl)c1 (racemic) [Example 162, N-{[(6RS,7SR)-7-(3,4-dichlorophenyl)-6-hydroxy-1,4-oxazepan-6-yl]methyl}methanesulfonamide monohydrochloride]	–
3	–	42	–	94	–	CC(=O)[C@@H]1CNCCO[C@H]1c1ccc(Cl)c(Cl)c1 [Example 216, 1-[(6R,7R)-7-(3,4-dichlorophenyl)-1,4-oxazepan-6-yl]ethanone monohydrochloride]	–
66	–	99	–	98	–	CS(=O)(=O)CC(=O)NC[C@H]1CNCCO[C@@H]1c1ccc(Cl)c(Cl)c1 [Example 115, N-{[(6R,7S)-7-(3,4-dichlorophenyl)-1,4-oxazepan-6-yl]methyl}-2-(methylsulfonyl)acetamide monohydrochloride]	–
96	–	97	–	96	–	CS(=O)(=O)C[C@H]1CNCCO[C@@H]1c1ccc(Cl)c(Cl)c1 [Example 93, (6S,7S)-7-(3,4-dichlorophenyl)-6-[(methylsulfonyl)methyl]-1,4-oxazepane monohydrochloride]	–
47	–	100	–	101	–	O=C(NC[C@@H]1CNCCO[C@H]1c1ccc(Cl)c(Cl)c1)c1cc(-c2noc(=O)[nH]2)ccn1 [Example 146, N-{[(6S,7R)-7-(3,4-dichlorophenyl)-1,4-oxazepan-6-yl]methyl}-4-(5-oxo-4,5-dihydro-1,2,4-oxadiazol-3-yl)pyridine-2-carboxamide monohydrochloride]	–

Structure (SMILES)	inhibition at 1 µM [1] [%]	inhibition at 10 µM ([1]; compound 10 μM) [%]	inhibition at 1 µM [2] [%]	inhibition at 10 µM ([2]; compound 10 μM, CHO cells expressing human serotonin transporter) [%]	inhibition at 1 µM [3, 4] [%]	inhibition at 10 µM ([3]; compound 10 μM, read-out: inhibitory rate (%)) [%]	inhibition at 1 µM [3, 5] [%]
OC[C@@H]1CNCCO[C@H]1c1ccc(Cl)c(Cl)c1 [Example 72, [(6S,7R)-7-(3,4-dichlorophenyl)-1,4-oxazepan-6-yl]methanol monohydrochloride]	41	–	90	–	–	–	95
OC[C@H]1CNCCO[C@@H]1c1ccc(Cl)c(Cl)c1 [Example 73, [(6R,7S)-7-(3,4-dichlorophenyl)-1,4-oxazepan-6-yl]methanol monohydrochloride]	64	–	97	–	–	–	98
OCC1CNCCOC1c1ccc(Cl)c(Cl)c1 (stereo not drawn) [Example 48, [(6R*,7R*)-7-(3,4-dichlorophenyl)-1,4-oxazepan-6-yl]methanol monohydrochloride (retention time short)]	22	–	98	–	–	–	99
O=c1ccccn1C[C@@H]1CNCCO[C@H]1c1ccc(Cl)c(F)c1 [Example 42, 1-{[(6S,7R)-7-(4-chloro-3-fluorophenyl)-1,4-oxazepan-6-yl]methyl}pyridin-2(1H)-one monohydrochloride]	47	–	87	–	102	–	–
